Experimental data from ChEMBL document CHEMBL1201862, “PubChem BioAssay data set” (2004).
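In this assay, cells in 96-well plates receive the compound at five concentrations for 48 hours. Endpoints are linearly interpolated between the surrounding concentrations. Here, GI50 denotes the concentration required for 50% inhibition of growth.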 Active and inactive are the calls of the source. No stated cut-off is given here; in the data, active = GI50 up to about 1.1 µM and inactive = higher.

Assays:
Assay in all cases: growth of human tumour cells (NCI), 48 h
NCI/ADR-RES = test system: NCI/ADR-RES
OVCAR-4 = test system: OVCAR-4
KM12 = test system: KM12
MCF7 = test system: MCF7
NCI-H226 = test system: NCI-H226
NCI-H23 = test system: NCI-H23
K562 = test system: K562
RPMI-8226 = test system: RPMI-8226
OVCAR-3 = test system: OVCAR-3
COLO 205 = test system: COLO 205
SF-268 = test system: SF-268
BT-549 = test system: BT-549
MDA-MB-231 = test system: MDA-MB-231
SF-539 = test system: SF-539
HCT-116 = test system: HCT-116
SF-295 = test system: SF-295
RXF 393 = test system: RXF 393
IGROV-1 = test system: IGROV-1
UO-31 = test system: UO-31
HOP-62 = test system: HOP-62
SK-OV-3 = test system: SK-OV-3
HCT-15 = test system: HCT-15
A498 = test system: A498
CCRF-CEM = test system: CCRF-CEM
NCI-H522 = test system: NCI-H522
U-251 = test system: U-251
OVCAR-8 = test system: OVCAR-8
OVCAR-5 = test system: OVCAR-5
SK-MEL-28 = test system: SK-MEL-28
LOX IMVI = test system: LOX IMVI
UACC-257 = test system: UACC-257
Malme-3M = test system: Malme-3M
TK-10 = test system: TK-10
PC-3 = test system: PC-3
MOLT-4 = test system: MOLT-4
MDA-MB-435 = test system: MDA-MB-435
SNB-19 = test system: SNB-19
HT-29 = test system: HT-29
NCI-H460 = test system: NCI-H460
EKVX = test system: EKVX
SN12C = test system: SN12C
CAKI-1 = test system: CAKI-1
UACC-62 = test system: UACC-62
A549 = test system: A549
SK-MEL-2 = test system: SK-MEL-2
SW-620 = test system: SW-620
T47D = test system: T47D
SR = test system: SR
HOP-92 = test system: HOP-92
SK-MEL-5 = test system: SK-MEL-5
HL-60 = test system: HL-60
HCC 2998 = test system: HCC 2998
786-0 = test system: 786-0
Hs-578T = test system: Hs-578T
M14 = test system: M14
DU-145 = test system: DU-145
MDA-N = test system: MDA-N
SNB-75 = test system: SNB-75
ACHN = test system: ACHN

## O=[N+]([O-])c1ccccc1OCCOc1ccccc1[N+](=O)[O-]
NCI/ADR-RES
  GI50: > 100 µM (inactive)
OVCAR-4
  GI50: > 100 µM (inactive)
KM12
  GI50: > 100 µM (inactive)
MCF7
  GI50: > 100 µM (inactive)
NCI-H226
  GI50: > 100 µM (inactive)
NCI-H23
  GI50: > 100 µM (inactive)
K562
  GI50: > 100 µM (inactive)
RPMI-8226
  GI50: > 100 µM (inactive)
OVCAR-3
  GI50: > 100 µM (inactive)
COLO 205
  GI50: > 100 µM (inactive)
SF-268
  GI50: > 100 µM (inactive)
BT-549
  GI50: > 100 µM (inactive)
MDA-MB-231
  GI50: 96.2 µM (inactive)
SF-539
  GI50: > 100 µM (inactive)
HCT-116
  GI50: > 100 µM (inactive)
SF-295
  GI50: > 100 µM (inactive)
RXF 393
  GI50: > 100 µM (inactive)
IGROV-1
  GI50: > 100 µM (inactive)
UO-31
  GI50: > 100 µM (inactive)
HOP-62
  GI50: > 100 µM (inactive)
SK-OV-3
  GI50: > 100 µM (inactive)
HCT-15
  GI50: > 100 µM
A498
  GI50: > 100 µM (inactive)
CCRF-CEM
  GI50: > 100 µM (inactive)
NCI-H522
  GI50: > 100 µM (inactive)
U-251
  GI50: > 100 µM (inactive)
OVCAR-8
  GI50: 64.6 µM (inactive)
OVCAR-5
  GI50: > 100 µM (inactive)
SK-MEL-28
  GI50: > 100 µM (inactive)
LOX IMVI
  GI50: > 100 µM (inactive)
UACC-257
  GI50: > 100 µM (inactive)
Malme-3M
  GI50: > 100 µM (inactive)
TK-10
  GI50: > 100 µM (inactive)
PC-3
  GI50: > 100 µM (inactive)
MOLT-4
  GI50: > 100 µM (inactive)
MDA-MB-435
  GI50: > 100 µM (inactive)
SNB-19
  GI50: > 100 µM (inactive)
HT-29
  GI50: > 100 µM (inactive)
NCI-H460
  GI50: > 100 µM (inactive)
EKVX
  GI50: > 100 µM (inactive)
SN12C
  GI50: > 100 µM (inactive)
CAKI-1
  GI50: > 100 µM (inactive)
UACC-62
  GI50: > 100 µM (inactive)
A549
  GI50: > 100 µM (inactive)
SK-MEL-2
  GI50: > 100 µM (inactive)
SW-620
  GI50: > 100 µM (inactive)
T47D
  GI50: > 100 µM (inactive)
SR
  GI50: > 100 µM (inactive)
HOP-92
  GI50: 71.8 µM (inactive)
SK-MEL-5
  GI50: > 100 µM (inactive)
HL-60
  GI50: > 100 µM (inactive)
HCC 2998
  GI50: > 100 µM (inactive)
786-0
  GI50: > 100 µM (inactive)
Hs-578T
  GI50: > 100 µM (inactive)
M14
  GI50: > 100 µM (inactive)
DU-145
  GI50: > 100 µM (inactive)
MDA-N
  GI50: > 100 µM (inactive)
SNB-75
  GI50: > 100 µM (inactive)
ACHN
  GI50: > 100 µM (inactive)
